This note sets out measurements from ChEMBL document CHEMBL5291721, “A preclinical secondary pharmacology resource illuminates target-adverse drug reaction associations of marketed drugs” (Nat Commun, 2023).

For test [1], the target named is Beta-3 adrenergic receptor (Homo sapiens, UniProt P13945).
Test [2] addresses Cannabinoid receptor 1 (Homo sapiens, UniProt P21554). Type of test: functional.
Test [3] deals with T1, D(4) dopamine receptor (Homo sapiens, UniProt P21917).
T1 sequence (P21917 whole entry): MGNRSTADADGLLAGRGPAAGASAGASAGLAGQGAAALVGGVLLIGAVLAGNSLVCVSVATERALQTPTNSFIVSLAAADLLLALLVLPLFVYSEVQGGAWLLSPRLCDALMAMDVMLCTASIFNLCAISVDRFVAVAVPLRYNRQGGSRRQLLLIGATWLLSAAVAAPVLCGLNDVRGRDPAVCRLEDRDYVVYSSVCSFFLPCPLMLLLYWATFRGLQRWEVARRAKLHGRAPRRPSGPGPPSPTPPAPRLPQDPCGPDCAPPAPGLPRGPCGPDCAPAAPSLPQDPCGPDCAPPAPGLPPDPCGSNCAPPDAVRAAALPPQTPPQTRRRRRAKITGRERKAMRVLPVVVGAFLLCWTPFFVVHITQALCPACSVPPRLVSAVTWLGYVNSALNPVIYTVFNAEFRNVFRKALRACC

Test [4] deals with Estrogen receptor beta (Homo sapiens, UniProt Q92731).
For test [5], the target named is Substance-P receptor (Homo sapiens, UniProt P25103).
Test [6] concerns the target T2, 5-hydroxytryptamine receptor 1A (Homo sapiens, UniProt P08908).
T2 sequence (P08908 whole entry): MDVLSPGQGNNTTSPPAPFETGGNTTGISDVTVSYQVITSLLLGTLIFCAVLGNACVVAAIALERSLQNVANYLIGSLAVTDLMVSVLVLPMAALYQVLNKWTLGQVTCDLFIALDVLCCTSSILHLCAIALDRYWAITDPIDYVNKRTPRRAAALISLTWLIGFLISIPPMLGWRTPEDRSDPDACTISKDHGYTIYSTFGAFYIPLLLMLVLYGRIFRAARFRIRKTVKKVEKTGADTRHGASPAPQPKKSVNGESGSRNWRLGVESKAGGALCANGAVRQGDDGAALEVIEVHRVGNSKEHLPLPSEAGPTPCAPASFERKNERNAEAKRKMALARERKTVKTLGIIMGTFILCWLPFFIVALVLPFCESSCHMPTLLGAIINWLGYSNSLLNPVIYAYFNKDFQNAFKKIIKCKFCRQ

The target of test [7] is T3, Muscarinic acetylcholine receptor M5 (Homo sapiens, UniProt P08912).
T3 sequence (P08912 whole entry): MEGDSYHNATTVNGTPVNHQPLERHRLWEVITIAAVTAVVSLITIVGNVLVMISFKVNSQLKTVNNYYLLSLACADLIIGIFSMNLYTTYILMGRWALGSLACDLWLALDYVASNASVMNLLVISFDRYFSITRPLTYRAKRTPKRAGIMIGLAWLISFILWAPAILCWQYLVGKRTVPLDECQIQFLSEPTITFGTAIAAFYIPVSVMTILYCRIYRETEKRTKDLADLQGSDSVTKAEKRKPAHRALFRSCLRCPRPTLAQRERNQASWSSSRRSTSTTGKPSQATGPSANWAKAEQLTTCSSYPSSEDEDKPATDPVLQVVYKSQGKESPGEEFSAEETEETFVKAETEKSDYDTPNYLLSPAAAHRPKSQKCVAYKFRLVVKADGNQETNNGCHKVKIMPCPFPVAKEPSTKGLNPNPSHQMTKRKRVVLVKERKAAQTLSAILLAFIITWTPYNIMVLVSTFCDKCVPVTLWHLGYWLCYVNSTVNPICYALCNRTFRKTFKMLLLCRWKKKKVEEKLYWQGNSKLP

Test [8] addresses T4, Muscarinic acetylcholine receptor M2 (Homo sapiens, UniProt P08172).
T4 sequence (P08172 whole entry): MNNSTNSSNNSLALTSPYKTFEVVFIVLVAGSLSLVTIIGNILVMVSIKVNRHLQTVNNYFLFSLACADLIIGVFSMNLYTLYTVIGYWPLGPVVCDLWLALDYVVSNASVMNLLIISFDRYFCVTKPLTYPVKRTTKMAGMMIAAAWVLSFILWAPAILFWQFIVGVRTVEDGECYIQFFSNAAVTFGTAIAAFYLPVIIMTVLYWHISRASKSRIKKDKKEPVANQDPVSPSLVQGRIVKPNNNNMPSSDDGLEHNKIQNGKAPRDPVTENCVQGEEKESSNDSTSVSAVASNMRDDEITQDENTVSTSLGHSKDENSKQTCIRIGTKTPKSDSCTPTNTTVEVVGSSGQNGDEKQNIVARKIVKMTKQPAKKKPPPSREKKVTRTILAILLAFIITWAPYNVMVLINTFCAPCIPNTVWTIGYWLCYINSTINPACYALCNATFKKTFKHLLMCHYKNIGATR

Test [9] deals with T5, Muscarinic acetylcholine receptor M1 (Homo sapiens, UniProt P11229).
T5 sequence (P11229 whole entry): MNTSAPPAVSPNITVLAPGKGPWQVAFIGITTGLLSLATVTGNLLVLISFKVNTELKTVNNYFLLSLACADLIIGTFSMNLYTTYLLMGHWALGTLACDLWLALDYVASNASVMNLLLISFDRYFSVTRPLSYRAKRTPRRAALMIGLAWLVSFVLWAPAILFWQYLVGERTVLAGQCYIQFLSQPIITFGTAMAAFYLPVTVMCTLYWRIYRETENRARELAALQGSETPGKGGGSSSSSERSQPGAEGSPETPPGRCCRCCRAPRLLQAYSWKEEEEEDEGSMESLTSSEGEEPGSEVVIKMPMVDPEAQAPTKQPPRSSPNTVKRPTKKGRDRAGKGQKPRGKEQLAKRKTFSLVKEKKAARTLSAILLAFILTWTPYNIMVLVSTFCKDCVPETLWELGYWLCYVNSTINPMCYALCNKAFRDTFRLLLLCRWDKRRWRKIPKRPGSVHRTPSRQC
Format: functional, cell-based.

Test [10] deals with 5-hydroxytryptamine receptor 2A (Homo sapiens, UniProt P28223).

Broadly, the AC50 is the concentration at which the activity in the assay is half-maximal. Low readings indicate activity at low concentration, high ones activity only at high concentration.
Further: assay procedure not described here.

Sequence of 5-hydroxytryptamine receptor 2A (P28223 whole entry): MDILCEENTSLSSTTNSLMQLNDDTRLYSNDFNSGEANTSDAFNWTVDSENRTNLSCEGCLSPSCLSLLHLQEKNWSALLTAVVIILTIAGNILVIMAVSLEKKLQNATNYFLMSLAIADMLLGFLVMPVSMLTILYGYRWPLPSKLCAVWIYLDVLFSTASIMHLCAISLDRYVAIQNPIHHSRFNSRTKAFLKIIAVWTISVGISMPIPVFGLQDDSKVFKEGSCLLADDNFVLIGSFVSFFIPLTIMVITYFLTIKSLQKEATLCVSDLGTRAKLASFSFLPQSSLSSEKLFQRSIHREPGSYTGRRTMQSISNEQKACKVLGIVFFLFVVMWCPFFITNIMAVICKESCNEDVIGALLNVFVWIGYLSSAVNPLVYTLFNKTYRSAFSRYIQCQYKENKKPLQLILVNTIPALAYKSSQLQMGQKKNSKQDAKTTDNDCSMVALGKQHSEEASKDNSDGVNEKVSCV
Sequence of Cannabinoid receptor 1 (P21554 whole entry): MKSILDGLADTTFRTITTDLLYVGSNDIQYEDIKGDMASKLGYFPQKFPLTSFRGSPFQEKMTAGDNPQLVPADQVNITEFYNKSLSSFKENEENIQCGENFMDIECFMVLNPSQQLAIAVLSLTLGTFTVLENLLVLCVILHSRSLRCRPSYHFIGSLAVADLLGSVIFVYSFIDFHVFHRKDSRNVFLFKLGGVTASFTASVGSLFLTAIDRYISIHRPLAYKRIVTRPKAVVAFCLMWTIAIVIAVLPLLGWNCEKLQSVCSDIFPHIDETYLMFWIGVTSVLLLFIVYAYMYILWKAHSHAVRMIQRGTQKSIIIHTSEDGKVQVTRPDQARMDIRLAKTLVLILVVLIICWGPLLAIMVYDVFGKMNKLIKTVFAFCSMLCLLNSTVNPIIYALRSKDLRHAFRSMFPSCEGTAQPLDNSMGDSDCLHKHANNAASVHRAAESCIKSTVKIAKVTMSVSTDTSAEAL
Sequence of Substance-P receptor (P25103 whole entry): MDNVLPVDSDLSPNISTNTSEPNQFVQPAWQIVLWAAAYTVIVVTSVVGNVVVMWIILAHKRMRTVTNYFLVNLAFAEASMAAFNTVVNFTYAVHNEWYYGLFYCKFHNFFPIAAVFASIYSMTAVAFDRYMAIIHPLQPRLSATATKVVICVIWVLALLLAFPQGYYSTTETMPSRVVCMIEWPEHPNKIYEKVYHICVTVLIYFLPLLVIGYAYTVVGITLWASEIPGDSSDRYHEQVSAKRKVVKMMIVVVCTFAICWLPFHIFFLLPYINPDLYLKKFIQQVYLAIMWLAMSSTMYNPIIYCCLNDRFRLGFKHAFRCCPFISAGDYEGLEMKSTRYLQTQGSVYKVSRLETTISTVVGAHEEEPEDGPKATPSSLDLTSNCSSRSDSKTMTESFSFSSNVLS
Sequence of Beta-3 adrenergic receptor (P13945 whole entry): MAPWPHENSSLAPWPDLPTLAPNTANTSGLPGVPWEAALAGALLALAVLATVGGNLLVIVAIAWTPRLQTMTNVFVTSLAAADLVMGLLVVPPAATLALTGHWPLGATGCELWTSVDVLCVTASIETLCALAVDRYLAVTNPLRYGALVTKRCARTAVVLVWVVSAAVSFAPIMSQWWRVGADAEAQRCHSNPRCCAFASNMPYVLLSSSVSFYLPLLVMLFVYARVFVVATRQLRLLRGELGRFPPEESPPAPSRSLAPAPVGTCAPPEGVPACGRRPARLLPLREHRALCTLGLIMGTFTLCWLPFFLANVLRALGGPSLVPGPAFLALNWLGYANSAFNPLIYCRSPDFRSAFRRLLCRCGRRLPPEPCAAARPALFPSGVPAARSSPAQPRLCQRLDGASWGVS
Sequence of Estrogen receptor beta (Q92731 whole entry): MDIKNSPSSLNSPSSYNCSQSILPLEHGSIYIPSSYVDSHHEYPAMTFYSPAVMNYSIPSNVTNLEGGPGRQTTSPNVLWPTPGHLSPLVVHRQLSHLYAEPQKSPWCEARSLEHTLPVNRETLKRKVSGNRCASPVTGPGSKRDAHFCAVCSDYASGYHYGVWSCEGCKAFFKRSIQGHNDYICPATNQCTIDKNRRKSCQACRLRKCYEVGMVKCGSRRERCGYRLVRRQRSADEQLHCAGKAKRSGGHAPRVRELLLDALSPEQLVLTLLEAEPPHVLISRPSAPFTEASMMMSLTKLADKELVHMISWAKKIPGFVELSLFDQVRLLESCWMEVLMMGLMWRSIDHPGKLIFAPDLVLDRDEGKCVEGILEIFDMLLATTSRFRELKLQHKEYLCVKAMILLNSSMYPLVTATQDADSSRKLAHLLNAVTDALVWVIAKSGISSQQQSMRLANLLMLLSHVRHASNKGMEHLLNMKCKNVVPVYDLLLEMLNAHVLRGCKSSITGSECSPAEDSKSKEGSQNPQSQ

For the molecule `CCc1nn(CCCN2CCN(c3cccc(Cl)c3)CC2)c(=O)n1CCOc1ccccc1` [NEFAZODONE], the half-maximal activity concentration (AC50) in test [1] is 9.5 µM; in test [2], > 10 µM; in [3] it was 0.271 µM; in test [4], > 30 µM; in test [5], 2.45 µM; in [6], 0.254 µM.

Turning to `NC(N)=Nc1nc(CSCCC(N)=NS(N)(=O)=O)cs1` [FAMOTIDINE], the AC50 is > 30 µM in test [1]; > 10 µM in test [7]; > 10 µM in [2]; > 10 µM in test [3]; > 10 µM in test [5]; > 10 µM in test [6]. Besides, the AC50 in test [8] was > 10 µM.

Turning to `NS(=O)(=O)c1cc2c(cc1Cl)NCNS2(=O)=O` [HYDROCHLOROTHIAZIDE], the AC50 was > 30 µM in [1]; > 10 µM in test [7]; > 10 µM in test [2]; > 10 µM in [3]; > 30 µM in test [4]; > 10 µM in test [5]. The half-maximal activity concentration (AC50) in [6] and in test [8] was > 10 µM throughout.

As to `O=C1c2ccccc2C(=O)C1C(=O)C(c1ccccc1)c1ccccc1` [DIPHENADIONE], the concentration at half-maximal activity (AC50) in test [9] came to 7.26 µM.

On to `CCOC(=O)[C@H](CCc1ccccc1)N[C@@H](C)C(=O)N1CCC[C@H]1C(=O)O`, for which the half-maximal activity concentration (AC50) was > 30 µM in test [1]; > 10 µM in test [7]; > 10 µM in [2]; > 10 µM in test [3]; > 10 µM in [5]; > 10 µM in test [6]. For the same molecule, the AC50 in test [8] is > 10 µM.

In the case of `O=C1c2c(O)c(=O)ccn2N([C@@H]2c3ccccc3SCc3c2ccc(F)c3F)[C@@H]2COCCN12` [BALOXAVIR], the concentration at half-maximal activity (AC50) in test [9] is > 30 µM.

Take `CCC(=O)c1c(O)cc(O)cc1O` [FLOPROPIONE]: the AC50 in test [9] was > 30 µM.

With `CCc1ccc(CCOc2ccc(CC3SC(=O)NC3=O)cc2)nc1` (configuration not stated) [PIOGLITAZONE], the AC50 is > 30 µM in [1]; > 10 µM in [2]; > 10 µM in test [3]; > 30 µM in [4]; > 10 µM in [5]; > 10 µM in [6].

Turning to `NC1=NC(=O)C(c2ccccc2)O1` (configuration not stated) [PEMOLINE], in test [6], the AC50 is > 10 µM.

`Nc1nc(N)c2nc(-c3ccccc3)c(N)nc2n1`: the AC50 in [1] is > 30 µM; in test [7], > 10 µM; in test [2] it was > 10 µM; in test [3] it was > 10 µM; in test [4], > 30 µM; in test [5], > 10 µM. In addition, the AC50 in test [6] and in test [8] was > 10 µM throughout.

As for `CN(C)C(=O)Oc1ccc[n+](C)c1` [PYRIDOSTIGMINE], in [9], the AC50 is > 30 µM.

As to `CC(C)OC(=O)[C@H](C)N[P@](=O)(OC[C@H]1O[C@@H](n2ccc(=O)[nH]c2=O)[C@](C)(F)[C@@H]1O)Oc1ccccc1` [SOFOSBUVIR], in [9], the AC50 was > 30 µM.

In the case of `CC(N/C(=N\C#N)Nc1ccncc1)C(C)(C)C` (configuration not stated) [PINACIDIL ANHYDROUS], the AC50 in test [9] is > 30 µM.

Take `NC(=O)c1cnccn1` [PYRAZINAMIDE]: the AC50 in test [1] was > 30 µM; in test [2], > 10 µM; in test [3], > 10 µM; in test [4], > 30 µM; in test [6], > 10 µM.

Regarding `CCOC(=O)c1ccc(O)cc1` [ETHYLPARABEN], the AC50 in test [9] was > 30 µM.

`CCO/N=C(\C(=O)N[C@@H]1C(=O)N2C(C(=O)[O-])=C(Sc3nc(-c4cc[n+](C)cc4)cs3)CS[C@H]12)c1nsc(N)n1` [CEFTAROLINE]: the AC50 in [9] was > 30 µM.

On to `Cc1ccc(O)c2ncccc12` [TILIQUINOL], for which the AC50 in test [9] was > 30 µM.

As to `CC(=O)Oc1c(C)cc(OCC(O)CNC(C)C)c(C)c1C` (configuration not stated) [METIPRANOLOL], the AC50 in test [9] was > 30 µM.

Take `CC(C)NCC(O)COc1ccc(COCCOC(C)C)cc1` (configuration not stated) [BISOPROLOL]: the AC50 in test [3] is > 10 µM; in test [4], > 30 µM; in test [5], > 10 µM; in [6], > 10 µM; in [8], > 10 µM; in test [10], > 10 µM.

With `COC(=O)[C@@H]1CC2=CC(=O)CC[C@]2(C)[C@@]23O[C@@H]2C[C@@]2(C)[C@@H](CC[C@@]24CCC(=O)O4)[C@H]13` [EPLERENONE], the AC50 in [1] is > 30 µM; in [6], > 10 µM; in test [8], > 10 µM; in test [10] it was > 10 µM.

Consider `OCCN1CCN(CCCN2c3ccccc3C=Cc3ccccc32)CC1` [OPIPRAMOL], for which the AC50 in test [9] is > 30 µM.

Regarding `C(=N\NC1=NCCN1)/c1c2ccccc2c(/C=N/NC2=NCCN2)c2ccccc12` [BISANTRENE], the AC50 in [9] is > 10 µM.

`CN(C)CCCN1c2ccccc2CCc2ccc(Cl)cc21` [CLOMIPRAMINE]: the AC50 in test [6] is > 10 µM.

As for `CCOC(=O)N[C@@H]1CC[C@@H]2[C@@H](C1)C[C@H]1C(=O)O[C@H](C)[C@H]1[C@H]2/C=C/c1ccc(-c2cccc(F)c2)cn1` [VORAPAXAR], in test [9], the AC50 is > 30 µM.

As to `CC(=O)OC[C@H]1O[C@@H](n2ccc(=O)[nH]c2=O)[C@H](OC(C)=O)[C@@H]1OC(C)=O` [URIDINE TRIACETATE], in test [9], the AC50 was > 30 µM.

Take `O=C1[C@H](CC[C@H](O)c2ccc(F)cc2)[C@@H](c2ccc(O)cc2)N1c1ccc(F)cc1` [EZETIMIBE]: the half-maximal activity concentration (AC50) in test [9] was > 30 µM.

As for `CC(N)Cc1ccccc1` (configuration not stated) [AMPHETAMINE], the AC50 in test [1] was > 30 µM; in [4], > 30 µM; in test [6] it was > 10 µM; in test [8], > 10 µM; in test [10] it was > 10 µM.

For the molecule `C[N+](C)(C)CCCCCCCCCC[N+](C)(C)C` [DECAMETHONIUM], in test [9], the AC50 was > 30 µM.

For `O=C(COc1ccc(Cl)cc1)N1CCN(Cc2ccc3c(c2)OCO3)CC1` [FIPEXIDE], the half-maximal activity concentration (AC50) in test [9] is > 30 µM.

On to `O=C(NC[C@H]1CN(c2ccc(N3CCOCC3=O)cc2)C(=O)O1)c1ccc(Cl)s1` [RIVAROXABAN], for which, in [9], the AC50 is > 30 µM.
